Laboratory results as given in EPA's ToxRefDB 2.

Legend:
rat [1] = settings: Subchronic oral toxicity in rodents, sprague dawley, Water, dose end: 90 day, group: systemic
mouse [2] = settings: Carcinogenicity, b6c3f1, Oral, Water, dose end: 104 week, group: systemic
rat [3] = settings: Prenatal developmental toxicity study, long evans, Oral, Gavage/Intubation, dose end: 15 GD
rat [4] = settings: Sub-acute repeat dose toxicity; sprague dawley; Oral; Water; dose end: 14 day; group: systemic; systemic / in life observation / body weight / body weight + systemic / in life observation / food consumption / food consumption + systemic…
rat [5] = settings: Combined chronic toxicity/carcinogenicity, other, Oral, Feed, dose end: 24 month, group: systemic
rat [6] = settings: Multigenerational reproductive toxicity study, other, Oral, Feed, dose end: 2 generation
mouse [7] = settings: Carcinogenicity, other, Oral, Feed, dose end: 18 month, group: systemic
dog [8] = settings: Chronic toxicity; beagle; Oral; Feed; dose end: 12 month; group: systemic; systemic / in life observation / body weight / body weight gain + systemic / in life observation / food consumption / food consumption + …
dog [9] = settings: Subchronic oral toxicity in nonrodent, beagle, Feed, dose end: 3 month, group: systemic, systemic / in life observation / body weight / body weight gain + systemic / in life observation / food consumption / food consumption
rat [10] = settings: Subchronic oral toxicity in rodents, wistar, Feed, dose end: 90 day, group: systemic
rabbit = settings: Prenatal developmental toxicity study, Russian (Chbb:HM, SPF), Oral, Gavage/Intubation, dose end: 19 GD
rat [11] = settings: Subchronic oral toxicity in rodents, other, Feed, dose end: 90 day, group: systemic
mouse [12] = settings: Subchronic oral toxicity in rodents, other, Feed, dose end: 90 day, group: systemic
rat [13] = settings: Prenatal developmental toxicity study, other, Oral, Gavage/Intubation, dose end: 15 GD
rat [14] = settings: Prenatal developmental toxicity study, wistar, Oral, [Not Specified], dose end: 20 GD
[15] = systemic / in life observation / water consumption / water consumption
[16] = systemic / in life observation / water consumption / water consumption + systemic / in life observation / body weight / body weight + …
[17] = systemic / pathology microscopic / liver / adenoma + systemic / pathology microscopic / liver / adenoma/carcinoma combined + systemic / …
[18] = systemic / pathology microscopic / liver / focal cellular change
[19] = group: developmental, developmental / developmental malformation / bone / [other] + developmental / developmental malformation / general / crown-rump length + …
[20] = group: developmental, developmental / developmental malformation / general / crown-rump length + developmental / developmental malformation / all gross anomalies…
[21] = group: maternal, reproductive / reproductive performance / implantations / implantations + reproductive / reproductive performance / postimplantation loss / …
[22] = group: maternal, systemic / organ weight / kidney / absolute + systemic / organ weight / spleen / absolute
[23] = systemic / pathology microscopic / liver / dilatation + systemic / clinical chemistry / urea nitrogen / urea + systemic / in life …
[24] = group: offspring, systemic / in life observation / body weight / offspring (pup) weight
[25] = group: parental, systemic / organ weight / kidney / relative to body weight
[26] = systemic / pathology microscopic / pancreas / hyperplasia
[27] = systemic / pathology microscopic / pancreas / hyperplasia + systemic / in life observation / body weight / body weight + systemic / in life …
[28] = systemic / clinical chemistry / calcium / calcium
[29] = systemic / in life observation / body weight / body weight + systemic / in life observation / body weight / body weight gain + systemic / …
[30] = group: developmental, developmental / developmental malformation / bone / full supernumerary
[31] = group: maternal, systemic / in life observation / body weight / body weight gain
[32] = systemic / clinical chemistry / cholesterol / cholesterol + systemic / clinical chemistry / lipids / phospholipids
[33] = systemic / pathology microscopic / liver / necrosis
[34] = systemic / pathology microscopic / liver / necrosis + systemic / hematology / leukocyte (wbc) count differential / leukocyte (wbc) + …
[35] = group: developmental, developmental / developmental malformation / bone / incomplete ossification + developmental / developmental malformation / bone / unossified…
[36] = group: maternal, systemic / in life observation / body weight / body weight + systemic / in life observation / body weight / body weight gain + systemic / in…
[37] = group: developmental, developmental / developmental malformation / bone / unossified
[38] = group: developmental, developmental / developmental malformation / bone / unossified + developmental / developmental malformation / bone / incomplete ossification…
[39] = group: maternal, systemic / in life observation / clinical signs / piloerection + systemic / in life observation / clinical signs / salivation + systemic / …

O=C(O)C(Cl)(Cl)Cl [Trichloroacetic acid]
LEL (rat [1]; [15]): 4.1 mg/kg/day
NEL (rat [1]; [15]): < 4.1 mg/kg/day
LOAEL (rat [1]; [16]): > 355 mg/kg/day
NOAEL (rat [1]; [16]): ≥ 355 mg/kg/day
LOAEL (mouse [2]; [17]): > 572 mg/kg/day
NOAEL (mouse [2]; [17]): ≥ 572 mg/kg/day
LEL (mouse [2]; [18]): 6 mg/kg/day
NEL (mouse [2]; [18]): < 6 mg/kg/day
LOAEL (rat [3]; [19]): > 1800 mg/kg/day
NOAEL (rat [3]; [19]): ≥ 1800 mg/kg/day
LEL (rat [3]; [20]): 330 mg/kg/day
NEL (rat [3]; [20]): < 330 mg/kg/day
LOAEL (rat [3]; [21]): > 1800 mg/kg/day
NOAEL (rat [3]; [21]): ≥ 1800 mg/kg/day
LEL (rat [3]; [22]): 330 mg/kg/day
NEL (rat [3]; [22]): < 330 mg/kg/day
LEL (rat [4]): 119 mg/kg/day
LOAEL (rat [4]): > 119 mg/kg/day
NEL (rat [4]): 31.6 mg/kg/day
NOAEL (rat [4]): ≥ 119 mg/kg/day

Cc1cc(C2CC2)nc(Nc2ccccc2)n1 [Cyprodinil]
LOAEL (rat [5]; systemic / pathology microscopic / liver / dilatation): 35.6 mg/kg/day
LEL (rat [5]; systemic / pathology microscopic / liver / dilatation + systemic / clinical chemistry / urea nitrogen / urea): 35.6 mg/kg/day
NEL (rat [5]; [23]): 2.7 mg/kg/day
NOAEL (rat [5]; [23]): 2.7 mg/kg/day
LEL (rat [6]; [24]): 332 mg/kg/day
LOAEL (rat [6]; [24]): 332 mg/kg/day
NEL (rat [6]; [24]): 77.2 mg/kg/day
NOAEL (rat [6]; [24]): 77.2 mg/kg/day
LOAEL (rat [6]; group: parental, systemic / in life observation / body weight / body weight): 326 mg/kg/day
NOAEL (rat [6]; group: parental, systemic / in life observation / body weight / body weight + systemic / organ weight / heart / relative to body weight + systemic / organ …): 81.3 mg/kg/day
LEL (rat [6]; [25]): 0.7 mg/kg/day
NEL (rat [6]; [25]): < 0.7 mg/kg/day
LEL (mouse [7]; [26]): 212 mg/kg/day
LOAEL (mouse [7]; [26]): 212 mg/kg/day
NEL (mouse [7]; [27]): 16.1 mg/kg/day
NOAEL (mouse [7]; [27]): 16.1 mg/kg/day
LEL (dog [8]): 446 mg/kg/day
LOAEL (dog [8]): 446 mg/kg/day
NEL (dog [8]): 68 mg/kg/day
NOAEL (dog [8]): 68 mg/kg/day
LEL (dog [9]): 560 mg/kg/day
LOAEL (dog [9]): 560 mg/kg/day
NEL (dog [9]): 210 mg/kg/day
NOAEL (dog [9]): 210 mg/kg/day
LEL (rat [10]; [28]): 3.52 mg/kg/day
NEL (rat [10]; [28]): < 3.52 mg/kg/day
LOAEL (rat [10]; [29]): 131 mg/kg/day
NOAEL (rat [10]; [29]): 17.8 mg/kg/day
LEL (rabbit; [30]): 400 mg/kg/day
LOAEL (rabbit; [30]): 400 mg/kg/day
NEL (rabbit; [30]): 150 mg/kg/day
NOAEL (rabbit; [30]): 150 mg/kg/day
LEL (rabbit; [31]): 400 mg/kg/day
LOAEL (rabbit; [31]): 400 mg/kg/day
NEL (rabbit; [31]): 150 mg/kg/day
NOAEL (rabbit; [31]): 150 mg/kg/day
LEL (rat [11]; [32]): 3.24 mg/kg/day
NEL (rat [11]; [32]): < 3.24 mg/kg/day
LOAEL (rat [11]; systemic / pathology microscopic / kidney / lesion(s) (nos)): 18.9 mg/kg/day
NOAEL (rat [11]; systemic / pathology microscopic / kidney / lesion(s) (nos) + systemic / clinical chemistry / albumin / albumin + systemic / clinical …): 3.14 mg/kg/day
LEL (mouse [12]; [33]): 257 mg/kg/day
LOAEL (mouse [12]; [33]): 257 mg/kg/day
NEL (mouse [12]; [34]): 73.3 mg/kg/day
NOAEL (mouse [12]; [34]): 73.3 mg/kg/day
LEL (rat [13]; [35]): 1000 mg/kg/day
LOAEL (rat [13]; [35]): 1000 mg/kg/day
NEL (rat [13]; [35]): 200 mg/kg/day
NOAEL (rat [13]; [35]): 200 mg/kg/day
LEL (rat [13]; [36]): 1000 mg/kg/day
LOAEL (rat [13]; [36]): 1000 mg/kg/day
NEL (rat [13]; [36]): 200 mg/kg/day
NOAEL (rat [13]; [36]): 200 mg/kg/day
LEL (rat [14]; [37]): 200 mg/kg/day
LOAEL (rat [14]; [37]): 200 mg/kg/day
NEL (rat [14]; [38]): 20 mg/kg/day
NOAEL (rat [14]; [38]): 20 mg/kg/day
LEL (rat [14]; [39]): 200 mg/kg/day
LOAEL (rat [14]; [39]): 200 mg/kg/day
NEL (rat [14]; [39]): 20 mg/kg/day
NOAEL (rat [14]; [39]): 20 mg/kg/day
